# Assay results as given in ChEMBL document CHEMBL5257159, “Insights into targeting SARS-CoV-2: design, synthesis, in silico studies and antiviral evaluation of new dimethylxanthine derivatives” (RSC Med Chem, 2023).
# Calls of active or inactive are those of the source. The calls are words filed in the database; no cut-off is given here.
# Tests used:
# HCT-116 = assay: Cytotoxicity against human HCT-116 cells assessed as inhibition of cell growth incubated for 48 hrs by SRB assay; type: functional, cell-based
# NCI-H460 = assay: Cytotoxicity against human NCI-H460 cells assessed as inhibition of cell growth incubated for 48 hrs by SRB assay; type: functional, cell-based
# MDA-MB-468 = assay: Cytotoxicity against human MDA-MB-468 cells assessed as inhibition of cell growth incubated for 48 hrs by SRB assay; type: functional, cell-based
# MCF7 = assay: Cytotoxicity against human MCF7 cells assessed as inhibition of cell growth incubated for 48 hrs by SRB assay; type: functional, cell-based
# A549 = assay: Cytotoxicity against human A549 cells assessed as inhibition of cell growth incubated for 48 hrs by SRB assay; type: functional, cell-based
# NCI/ADR-RES = assay: Cytotoxicity against human NCI/ADR-RES cells assessed as inhibition of cell growth incubated for 48 hrs by SRB assay; type: functional, cell-based
# SARS-CoV-2 = assay: Antiviral activity against SARS-CoV-2 NRC-03-nhCoV infected in african green monkey Vero E6 cells assessed as inhibition of virus-induced cytopathic effect measured after 72 hrs by crystal violet staining based assay; type: functional, organism-based; settings: Severe acute respiratory syndrome coronavirus 2, NRC-03-nhCoV, Vero C1008, 72 h
# SNB-19 = assay: Cytotoxicity against human SNB-19 cells assessed as inhibition of cell growth incubated for 48 hrs by SRB assay; type: functional, cell-based
# BT-549 = assay: Cytotoxicity against human BT-549 cells assessed as inhibition of cell growth incubated for 48 hrs by SRB assay; type: functional, cell-based
# T47D = assay: Cytotoxicity against human T47D cells assessed as inhibition of cell growth incubated for 48 hrs by SRB assay; type: functional, cell-based
# 786-0 = assay: Cytotoxicity against human 786-0 cells assessed as inhibition of cell growth incubated for 48 hrs by SRB assay; type: functional, cell-based
# [1] = Selectivity index, ratio of CC50 for african green monkey Vero E6 cells to IC50 for antiviral activity against SARS-CoV-2 NRC-03-nhCoV infected in african green monkey Vero E6 cells; type: toxicity, Vero C1008; settings: read-out: Ratio CC50/IC50
# OVCAR-3 = assay: Cytotoxicity against human OVCAR-3 cells assessed as inhibition of cell growth incubated for 48 hrs by SRB assay; type: functional, cell-based
# COLO 205 = assay: Cytotoxicity against human COLO 205 cells assessed as inhibition of cell growth incubated for 48 hrs by SRB assay; type: functional, cell-based
# OVCAR-5 = assay: Cytotoxicity against human OVCAR-5 cells assessed as inhibition of cell growth incubated for 48 hrs by SRB assay; type: functional, cell-based
# ACHN = assay: Cytotoxicity against human ACHN cells assessed as inhibition of cell growth incubated for 48 hrs by SRB assay; type: functional, cell-based
# SF-539 = assay: Cytotoxicity against human SF-539 cells assessed as inhibition of cell growth incubated for 48 hrs by SRB assay; type: functional, cell-based
# HCT-15 = assay: Cytotoxicity against human HCT-15 cells assessed as inhibition of cell growth incubated for 48 hrs by SRB assay; type: functional, cell-based
# NCI-H226 = assay: Cytotoxicity against human NCI-H226 cells assessed as inhibition of cell growth incubated for 48 hrs by SRB assay; type: functional, cell-based
# CCRF-CEM = assay: Cytotoxicity against human CCRF-CEM cells assessed as inhibition of cell growth incubated for 48 hrs by SRB assay; type: functional, cell-based
# SK-MEL-5 = assay: Cytotoxicity against human SK-MEL-5 cells assessed as inhibition of cell growth incubated for 48 hrs by SRB assay; type: functional, cell-based
# SK-MEL-2 = assay: Cytotoxicity against human SK-MEL-2 cells assessed as inhibition of cell growth incubated for 48 hrs by SRB assay; type: functional, cell-based
# OVCAR-4 = assay: Cytotoxicity against human OVCAR-4 cells assessed as inhibition of cell growth incubated for 48 hrs by SRB assay; type: functional, cell-based
# SK-MEL-28 = assay: Cytotoxicity against human SK-MEL-28 cells assessed as inhibition of cell growth incubated for 48 hrs by SRB assay; type: functional, cell-based
# OVCAR-8 = assay: Cytotoxicity against human OVCAR-8 cells assessed as inhibition of cell growth incubated for 48 hrs by SRB assay; type: functional, cell-based
# SW-620 = assay: Cytotoxicity against human SW620 cells assessed as inhibition of cell growth incubated for 48 hrs by SRB assay; type: functional, cell-based
# [2] = target: T1, Replicase polyprotein 1ab (Severe acute respiratory syndrome coronavirus 2, UniProt P0DTD1); assay: Inhibition of MBP tagged recombinant SARS-CoV-2 main protease using DABCYL-KTSAVLeu(13C6,15N)-Q as substrate incubated for 2 to 3 hrs by mass spectrometric analysis
# UO-31 = assay: Growth inhibition of human UO-31 cells incubated for 48 hrs by SRB assay relative to control; type: functional
# Hs578Bst = assay: Cytotoxicity against human Hs578Bst cells assessed as inhibition of cell growth incubated for 48 hrs by SRB assay; type: functional, cell-based
# TK-10 = assay: Cytotoxicity against human TK-10 cells assessed as inhibition of cell growth incubated for 48 hrs by SRB assay; type: functional, cell-based
# SR = assay: Cytotoxicity against human SR cells assessed as inhibition of cell growth incubated for 48 hrs by SRB assay; type: functional, cell-based
# PC-3 = assay: Cytotoxicity against human PC-3 cells assessed as inhibition of cell growth incubated for 48 hrs by SRB assay; type: functional, cell-based
# RXF 393 = assay: Cytotoxicity against human RXF 393 cells assessed as inhibition of cell growth incubated for 48 hrs by SRB assay; type: functional, cell-based
# A498 = assay: Cytotoxicity against human A498 cells assessed as inhibition of cell growth incubated for 48 hrs by SRB assay; type: functional, cell-based
# HOP-62 = assay: Cytotoxicity against human HOP-62 cells assessed as inhibition of cell growth incubated for 48 hrs by SRB assay; type: functional, cell-based
# Malme-3M = assay: Cytotoxicity against human Malme-3M cells assessed as inhibition of cell growth incubated for 48 hrs by SRB assay; type: functional, cell-based
# HCC 2998 = assay: Cytotoxicity against human HCC 2998 cells assessed as inhibition of cell growth incubated for 48 hrs by SRB assay; type: functional, cell-based
# KM12 = assay: Cytotoxicity against human KM12 cells assessed as inhibition of cell growth incubated for 48 hrs by SRB assay; type: functional, cell-based
# NCI-H322M = assay: Cytotoxicity against human NCI-H322M cells assessed as inhibition of cell growth incubated for 48 hrs by SRB assay; type: functional, cell-based
# SNB-75 = assay: Cytotoxicity against human SNB-75 cells assessed as inhibition of cell growth incubated for 48 hrs by SRB assay; type: functional, cell-based
# [3] = target: T1, Replicase polyprotein 1ab; assay: Inhibition of SARS-CoV-2 RdRP using ATP substrate preincubated with compound for 30 mins followed by substrate addition and measured after 30 mins by Alphascreen microplate reader analysis
# MDA-MB-231 = assay: Cytotoxicity against human MDA-MB-231 cells assessed as inhibition of cell growth incubated for 48 hrs by SRB assay; type: functional, cell-based
# HOP-92 = assay: Cytotoxicity against human HOP-92 cells assessed as inhibition of cell growth incubated for 48 hrs by SRB assay; type: functional, cell-based
# NCI-H522 = assay: Cytotoxicity against human NCI-H522 cells assessed as inhibition of cell growth incubated for 48 hrs by SRB assay; type: functional, cell-based
# MOLT-4 = assay: Cytotoxicity against human MOLT-4 cells assessed as inhibition of cell growth incubated for 48 hrs by SRB assay; type: functional, cell-based
# UACC-257 = assay: Cytotoxicity against human UACC-257 cells assessed as inhibition of cell growth incubated for 48 hrs by SRB assay; type: functional, cell-based
# HT-29 = assay: Cytotoxicity against human HT-29 cells assessed as inhibition of cell growth incubated for 48 hrs by SRB assay; type: functional, cell-based
# M14 = assay: Cytotoxicity against human M14 cells assessed as inhibition of cell growth incubated for 48 hrs by SRB assay; type: functional, cell-based
# IGROV-1 = assay: Cytotoxicity against human IGROV-1 cells assessed as inhibition of cell growth incubated for 48 hrs by SRB assay; type: functional, cell-based
# K562 = assay: Cytotoxicity against human K562 cells assessed as inhibition of cell growth incubated for 48 hrs by SRB assay; type: functional, cell-based
# LOX IMVI = assay: Cytotoxicity against human LOX IMVI cells assessed as inhibition of cell growth incubated for 48 hrs by SRB assay; type: functional, cell-based
# EKVX = assay: Cytotoxicity against human EKVX cells assessed as inhibition of cell growth incubated for 48 hrs by SRB assay; type: functional, cell-based
# SN12C = assay: Cytotoxicity against human SN12C cells assessed as inhibition of cell growth incubated for 48 hrs by SRB assay; type: functional, cell-based
# NCI-H23 = assay: Cytotoxicity against human NCI-H23 cells assessed as inhibition of cell growth incubated for 48 hrs by SRB assay; type: functional, cell-based
# MDA-MB-435 = assay: Cytotoxicity against human MDA-MB-435 cells assessed as inhibition of cell growth incubated for 48 hrs by SRB assay; type: functional, cell-based
# SF-295 = assay: Cytotoxicity against human SF-295 cells assessed as inhibition of cell growth incubated for 48 hrs by SRB assay; type: functional, cell-based
# [4] = Cytotoxicity against African green monkey Vero E6 cells measured after 72 hrs by MTT assay; type: toxicity, cell-based, Vero C1008; settings: chlorocebus sabaeus
# HL-60(TB) = assay: Cytotoxicity against human HL-60(TB) cells assessed as inhibition of cell growth incubated for 48 hrs by SRB assay; type: functional, cell-based
# DU-145 = assay: Cytotoxicity against human DU-145 cells assessed as inhibition of cell growth incubated for 48 hrs by SRB assay; type: functional, cell-based
# RPMI-8226 = assay: Cytotoxicity against human […] cells assessed as inhibition of cell growth incubated for 48 hrs by SRB assay; type: functional, cell-based
# SK-OV-3 = assay: Cytotoxicity against human SK-OV-3 cells assessed as inhibition of cell growth incubated for 48 hrs by SRB assay; type: functional, cell-based
# SF-268 = assay: Cytotoxicity against human SF-268 cells assessed as inhibition of cell growth incubated for 48 hrs by SRB assay; type: functional, cell-based
# U-251 = assay: Cytotoxicity against human U-251 cells assessed as inhibition of cell growth incubated for 48 hrs by SRB assay; type: functional, cell-based
# CAKI-1 = assay: Cytotoxicity against human CAKI-1 cells assessed as inhibition of cell growth incubated for 48 hrs by SRB assay; type: functional, cell-based
# [5] = target: T1, Replicase polyprotein 1ab; assay: Inhibition of recombinant SARS-CoV-2 main protease expressed in Escherichia coli BL21 using Dabcyl-EDANS and Boc-Abu-Tle-Leu-Gln-AMC as substrate
smiles,measurement,setting,value
Cn1cnc2c1c(=O)n(CC(=O)Nc1ccc(S(=O)(=O)Nc3ncccn3)cc1)c(=O)n2C,Activity,HCT-116,inactive
same,Activity,NCI-H460,inactive
same,Activity,MDA-MB-468,inactive
same,Activity,MCF7,inactive
same,Activity,A549,inactive
same,Activity,NCI/ADR-RES,inactive
same,IC50,SARS-CoV-2,8.86 µM
same,Activity,SNB-19,inactive
same,Activity,BT-549,inactive
same,Activity,T47D,inactive
same,Activity,786-0,inactive
same,selectivity ratio,[1],129
same,Activity,OVCAR-3,inactive
same,Activity,COLO 205,inactive
same,Activity,OVCAR-5,inactive
same,Activity,ACHN,inactive
same,Activity,SF-539,inactive
same,Activity,HCT-15,inactive
same,Activity,NCI-H226,inactive
same,Activity,CCRF-CEM,inactive
same,Activity,SK-MEL-5,inactive
same,Activity,SK-MEL-2,inactive
same,Activity,OVCAR-4,inactive
same,Activity,SK-MEL-28,inactive
same,Activity,OVCAR-8,inactive
same,Activity,SW-620,inactive
same,IC50,[2],8.06 µM
same,growth inhibition (GI),UO-31,17.55%
same,Activity,Hs578Bst,inactive
same,Activity,TK-10,inactive
same,Activity,SR,inactive
same,Activity,PC-3,inactive
same,Activity,RXF 393,inactive
same,Activity,A498,inactive
same,Activity,HOP-62,inactive
same,Activity,Malme-3M,inactive
same,Activity,HCC 2998,inactive
same,Activity,KM12,inactive
same,Activity,NCI-H322M,inactive
same,Activity,SNB-75,inactive
same,IC50,[3],3.22 µM
same,Activity,MDA-MB-231,inactive
same,Activity,HOP-92,inactive
same,Activity,NCI-H522,inactive
same,Activity,MOLT-4,inactive
same,Activity,UACC-257,inactive
same,Activity,HT-29,inactive
same,Activity,M14,inactive
same,Activity,IGROV-1,inactive
same,Activity,K562,inactive
same,Activity,LOX IMVI,inactive
same,Activity,EKVX,inactive
same,Activity,SN12C,inactive
same,Activity,NCI-H23,inactive
same,Activity,MDA-MB-435,inactive
same,Activity,SF-295,inactive
same,CC50 at 72 h,[4],1140 µM
same,Activity,HL-60(TB),inactive
same,Activity,DU-145,inactive
same,Activity,RPMI-8226,inactive
same,Activity,SK-OV-3,inactive
same,Activity,SF-268,inactive
same,Activity,U-251,inactive
same,Activity,CAKI-1,inactive
CCC(CC)COC(=O)[C@H](C)N[P@](=O)(OC[C@H]1O[C@@](C#N)(c2ccc3c(N)ncnn23)[C@H](O)[C@@H]1O)Oc1ccccc1,IC50,SARS-CoV-2,10.1 µM
same,CC50 at 72 h,[4],608 µM
Cn1c(=O)c2c(nc3n(CC#Cc4ccc(Cl)c(Cl)c4)ccn23)n(C)c1=O,IC50,[5],4.7 µM
